Laboratory results from article PMC12530851, “Design, synthesis, and apoptotic antiproliferative activity of novel dihydropyrimidine-5-carbonitrile/1,2,4-oxadiazole hybrids as dual EGFR/VEGFR-2 inhibitors endowed with antioxidant activity” (RSC Advances, 2025).

Tests used:
Type in all cases: cell-based, human
Bcl-2 = Bcl-2 level assay in MCF-7 cells; settings: for Bcl-2 Fold reduction: vs untreated control
Method: (§1) Compounds10k and 10l were tested as caspases-3, 8, 9, Bax and p53 activators and as down-regulators of the anti-apoptotic protein Bcl2 against the MCF-7 breast cancer cell line.[41] Appendix A gives more details.
(§2) The Bcl-2 protein family, which includes pro-apoptotic proteins (Bax) and anti-apoptotic proteins (Bcl-2), primarily regulates apoptosis.[46] […] Consequently, we assessed the expression levels of Bcl-2 and Bax proteins in MCF-7 breast cancer cells treated with compounds 10k and 10l, Table 6. […]
4.2.8. Bcl-2 inhibition assay
Mix all the reagents thoroughly without foaming before use. Wash the microwells twice with approximately 300 μL Wash Buffer per well with thorough aspiration of microwell contents between washes. Take caution not to scratch the surface of the microwells. After the last wash, empty the wells and tap microwell strips on absorbent pad or paper towel to remove excess Wash Buffer. Use the microwell strips immediately after washing or place upside down on a wet absorbent paper for not longer than 15 minutes. […] Add 100 μL of Sample […]
Diluent in duplicate to all standard wells and to the blank wells. Prepare standard (1:2 dilution) in duplicate ranging from 32 ng/mL to 0.5 ng/mL. Add 100 μL of Sample Diluent, in duplicate, to the blank wells. Add 80 μL of Sample Diluent, in duplicate, to the sample wells. Add 20 μL of each Sample, in duplicate, to the designated wells. Add 50 μL of diluted biotin-conjugate to all wells, including the blank wells. Cover with a plate cover and incubate at room temperature, on a microplate shaker at 100 rpm if available, for 2 hours. Remove plate cover and empty the wells.
Wash microwell strips 3 times as described in step 2. Add 100 μL of diluted Streptavidin-HRP to all wells, including the blank wells. Cover with a plate cover and incubate at room temperature, on a microplate shaker at 100 rpm if available, for 1 hour. Remove the plate cover and empty the wells. Wash microwell strips 3 times as described in step 2. Proceed to the next step. Pipette 100 μl of mixed TMB Substrate Solution to all wells, including the blanks. […] The point, at which the substrate reaction is stopped, is often determined by the ELISA reader. Many ELISA readers record absorbance only up to 2.0
O.D. Therefore, the color development within individual microwells must be watched by the person running the assay and the substrate reaction stopped before positive wells are no longer properly detectable. […] Results must be read immediately after the Stop Solution is added or within one hour if the microwell strips are stored at 2 - 8°C in the dark. Read the absorbance of each microwell on a spectrophotometer using 450 nm as the primary wavelength.

Bax = Bax activation assay in MCF-7 cells; settings: for Bax Fold change: vs untreated control
Method: as §1, §2
Cells were obtained from American Type Culture Collection, cells were grown in RPMI 1640 containing 10% fetal bovine serum at 37°C, stimulated with the compounds to be tested for caspase 8/9, and lysed with Cell Extraction Buffer. This lysate was diluted in Standard Diluent Buffer over the range of the assay and measured for human active caspase-8/9 content. (Cells are Plated in a density of 1.2 – 1.8 × 10,000 cells/well in a volume of 100µl complete growth medium + 100 ul of the tested compound per well in a 96-well plate for 24 hours before the enzyme assay). […]
4.2.7. Bax activation assay
Bring all reagents, except the human Bax-α Standard, to room temperature for at least 30 minutes prior to opening. The human Bax-α Standard solution should not be left at room temperature for more than 10 minutes. All standards, controls and samples should be run in duplicate. Refer to the Assay Layout Sheet to determine the number of wells to be used and put any remaining wells with the desiccant back into the pouch and seal the ziploc. Store unused wells at 4 °C. Pipet 100 μL of Assay Buffer into the S0 (0 pg/mL standard) wells. Pipet 100 μL of Standards #1 through #6 into the appropriate wells. Pipet 100 μL of the Samples into the appropriate wells. Tap the plate gently to mix the contents. Seal the plate and incubate at room temperature on a plate shaker for 1 hour at ~500 rpm. Empty the contents of the wells and wash by adding 400 μL of wash solution to every well. Repeat the wash 4 more times for a total of 5 washes. After the final wash, empty or aspirate the wells and firmly tap the plate on a lint free paper towel to remove any remaining wash buffer.
Pipet 100 μL of yellow Antibody into each well, except the Blank. Seal the plate and incubate at room temperature on a plate shaker for 1 hour at ~500 rpm. Empty the contents of the wells and wash by adding 400 μL of wash solution to every well. Repeat the wash 4 more times for a total of 5 washes. […]
Pipet 100 μL of Substrate Solution into each well. […] Blank the plate reader against the Blank wells, read the optical density at 450 nm. […]
The concentration of Bax in the unknowns can be determined by interpolation. […]

p53 = p53 level assay in MCF-7 cells
Method: as §1
P53's ability to eliminate superfluous, damaged, or contaminated cells by apoptosis is critical for the proper regulation of cell proliferation in multicellular organisms.[49] p53 is activated by both external and internal stress signals, allowing for nuclear accumulation in an active state. As a result, p53 induces either reversible cell growth arrest or apoptosis. The aforesaid activity is necessary for tumor suppression.[50]

Q: How did the Bcl-2 (Bcl-2) turn out when COc1ccc(-c2nc(SCc3nc(-c4ccc(Cl)cc4)no3)[nH]c(=O)c2C#N)cc1 [Compound 10k, 2-(((3-(4-Chlorophenyl)-1,2,4-oxadiazol-5-yl)methyl)thio)-4-(4-methoxyphenyl)-6-oxo-1,6-dihydropyrimidine-5-carbonitrile] was run?
A: The Bcl-2 was 1.20 ± 0.001 ng/mL.

Q: And the “Bcl-2 Fold reduction” value (Bcl-2)?
A: The value was 4 fold.

Q: What about the Bax (Bax) of the same molecule?
A: The Bax was 545 ± 3 pg/mL.

Q: What about the “Bax Fold change” value (Bax) of the same molecule?
A: Its value is 9 fold.

Q: What about the p53 (p53) of the same molecule?
A: Its p53 is 330 ± 2 pg/mL.

Q: COc1ccc(-c2noc(CSc3nc(-c4ccc(OC)cc4)c(C#N)c(=O)[nH]3)n2)cc1 [Compound 10l, 2-(((3-(4-Methoxyphenyl)-1,2,4-oxadiazol-5-yl)methyl)thio)-4-(4-methoxyphenyl)-6-oxo-1,6-dihydropyrimidine-5-carbonitrile] was tested. Which Bcl-2 (Bcl-2) did it give?
A: Its Bcl-2 is 1.50 ± 0.001 ng/mL.

Q: What about the “Bcl-2 Fold reduction” value (Bcl-2) of the same molecule?
A: The value was 3 fold.

Q: What about the Bax (Bax) of the same molecule?
A: The Bax was 505 ± 3 pg/mL.

Q: What about the “Bax Fold change” value (Bax) of the same molecule?
A: Its value is 8 fold.

Q: What about the p53 (p53) of the same molecule?
A: Its p53 is 285 ± 2 pg/mL.
